Assay results from PMC11477141, “Chemokine Receptor N-Terminus Charge Dictates Reliance on Post-Translational Modifications for Effective Ligand Capture and Following Boosting by Defense Peptides” (International Journal of Molecular Sciences, 2024).
Where no end group is shown, it is not given here.

Key:
Y14Y15AA-CCR5 = experiment: BRET CAMYEL Gαi signaling via Y14Y15AA-CCR5; format: cell-based, human; details: CHO cells, n = 3
Method: (§1) BRET measurements of Gαi signaling and β-arrestin recruitment: Cells were seeded in 6-well plates (500,000 cells/well) and transiently transfected the following day. For BRET measurements of Gαi signaling, cells were transfected with vectors encoding the human chemokine receptors as indicated (160 ng/well) and the CAMYEL sensor (cAMP sensor, YFP-Epac-RLuc) (840 ng/well) using Lipofectamine (6 µL/well). Briefly, DNA was dissolved in 125 µL OPTI-MEM and Lipofectamine was dissolved in 125 µL OPTI-MEM. The DNA and Lipofectamine solutions were combined into a transfection mixture. The transfection mixture was added dropwise to cells incubated in OPTI-MEM (1 mL/well). Transfections were terminated after 5 h by adding 1 mL of fresh culture medium on top of the OPTI-MEM. The following day the cells were loosened from the plates in PBS with 5 mM glucose and subsequently aliquoted in white 96-well iso plates (~25,000 cells/well). […] The BRET signal is determined as the ratio eYFP (530 nm)/Rluc (480 nm).
(§2) BRET principle with CAMYEL: For quantification of signaling initiated immediately downstream of receptor activation, we used the cAMP binding CAMYEL sensor to perform bioluminescence resonance energy transfer (BRET) based assays. […] The BRET ratio is determined as the ratio between YFP/Rluc, and an increase in BRET ratio indicates a decrease in cAMP and thus increased chemokine receptor activation. […]

CCR5 = target: T1, CCR5 (Homo sapiens, UniProt P51681); experiment: BRET CAMYEL cAMP sensor assay of ligand-induced Gαi signaling via CCR5; format: cell-based; details: n = 3
T1 construct: expressed in transfected cells; host or cells: CHO-K1, CHO-pgsB618 (GAG-minus), HEK293 WT / DeltaSia / sC
T1 sequence (P51681 whole entry): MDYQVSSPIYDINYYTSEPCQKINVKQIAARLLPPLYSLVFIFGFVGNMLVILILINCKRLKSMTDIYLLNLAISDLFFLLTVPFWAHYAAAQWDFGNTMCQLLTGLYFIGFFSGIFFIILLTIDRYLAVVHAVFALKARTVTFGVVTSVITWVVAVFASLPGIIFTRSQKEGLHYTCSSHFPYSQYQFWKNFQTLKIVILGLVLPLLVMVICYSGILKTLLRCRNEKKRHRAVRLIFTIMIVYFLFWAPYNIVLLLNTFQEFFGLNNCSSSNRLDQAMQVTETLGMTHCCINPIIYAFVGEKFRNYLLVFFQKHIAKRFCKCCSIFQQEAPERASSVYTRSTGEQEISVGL
Method: For quantification of signaling initiated immediate downstream of receptor activation, we used the cAMP binding CAMYEL sensor to perform bioluminescence resonance energy transfer (BRET)-based assays. Shortly, in this assay increased receptor activation leads to an increase in BRET ratio. For detailed information see the Materials and Methods section.
In signaling assays testing the boosting ability of basic peptides, transfected cells were aliquoted into 96-well plates in the presence of 10 µM peptide or PBS vehicle. After R-Luc substrate addition, chemokines were added to reach final concentrations ranging from 0–100 nM (0, 0.1, 1, 10, and 100 nM) and forskolin was applied before reading emission at 475 and 525 nm.
BRET measurements of Gαi signaling and β-arrestin recruitment: Cells were seeded in 6-well plates (500,000 cells/well) and transiently transfected the following day. For BRET measurements of Gαi signaling, cells were transfected with vectors encoding the human chemokine receptors as indicated (160 ng/well) and the CAMYEL sensor (cAMP sensor, YFP-Epac-RLuc) (840 ng/well) using Lipofectamine (6 µL/well). Briefly, DNA was dissolved in 125 µL OPTI-MEM and Lipofectamine was dissolved in 125 µL OPTI-MEM. The DNA and Lipofectamine solutions were combined into a transfection mixture. The transfection mixture was added dropwise to cells incubated in OPTI-MEM (1 mL/well). Transfections were terminated after 5 h by adding 1 mL of fresh culture medium on top of the OPTI-MEM. The following day the cells were loosened from the plates in PBS with 5 mM glucose and subsequently aliquoted in white 96-well iso plates (~25,000 cells/well). When using C21TP variants and defense peptides (hBD2 and histatin), these were added to a final concentration of 10 μM/well, while an equal amount of PBS was added to control cells. The bioluminescence substrate coelenterazine was added to a final conc. of 5 µM. After 10 min, varying ligand concentrations were added. For BRET measurements of Gαi signaling, forskolin was added 5 min after the addition of the ligand, to a final conc. of 5 µM. The plates were kept in the dark at all times. A Perkin Elmer Envision machine was used for measuring the emission signals at 530 and 480 nm. The BRET signal is determined as the ratio eYFP (530 nm)/Rluc (480 nm).
BRET principle with CAMYEL: For quantification of signaling initiated immediately downstream of receptor activation, we used the cAMP binding CAMYEL sensor to perform bioluminescence resonance energy transfer (BRET) based assays. In this assay we measure changes in intracellular cAMP levels in response to receptor activation. Activation of chemokine receptors lead to a decrease in cAMP through inhibition of adenylate cyclase (AC). In the current setup we initially add forskolin that stimulates AC directly to induce an increase in intracellular cAMP, and we then measure the ability of a ligand (chemokine) to counteract the forskolin-induced increase in cAMP. The cAMP sensor (CAMYEL cAMP sensor, YFP-Epac-RLuc) carries the donor Renilla luciferase (Rluc) and the acceptor YFP. Coelenterazine is a substrate for Rluc that will emit light at around 475 nm upon enzymatic cleavage catalyzed by Rluc. When Rluc and YFP are in close proximity, the energy from the emitted light from coelenterazine can be transferred to YFP, resulting in an excitation of YFP, leading to a BRET signal around 525 nm. EPAC is a cAMP binding protein that changes conformation upon cAMP binding. During low cAMP concentrations, Rluc and YFP are near each other, and a strong BRET signal at 525 nm is obtained. When cAMP levels increase, cAMP will bind to EPAC, creating a conformational change, separating Rluc and YFP, reducing the BRET ratio, and increasing the emission from Rluc at 475 nm. Thus, by measuring the ratio between the cAMP-bound (475 nm) and the cAMP-free (525 nm) state of CAMYEL we obtain a measure of receptor activation. […]

S6S7AA-CCR5 = experiment: BRET CAMYEL Gαi signaling via S6S7AA-CCR5; format: cell-based, human; details: CHO cells, n = 3
Method: as §1, §2

Y10Y14Y15AAA-CCR5 = experiment: BRET CAMYEL Gαi signaling via Y10Y14Y15AAA-CCR5; format: cell-based, human; details: CHO cells, n = 3
Method: as §1, §2

[1] = CHO-K1 cells, 10 µM peptide, chemokine 0-100 nM
[2] = HEK293 WT, DeltaSia and sC cells, 10 µM peptide
[3] = M1-tagged CCR5, HEK293 WT, DeltaSia and sC cells, 10 µM peptide

In the case of “CCL5: human chemokine from Peprotech, overall basic”, the “Gαi signaling via Y14Y15AA-CCR5 compared to WT-CCR5” value (Y14Y15AA-CCR5) is reported as “completely abolished”, the “LogEC50 of CCL5-induced Gαi signaling via CCR5” value (CCR5; CHO GAG-plus (WT CHO-K1) cells, CCL5 alone without peptide) is reported as −7.522 ± 0.639 and the “Gαi signaling via CCR5 in DeltaSia cells compared to WT cells” value (CCR5; HEK293 DeltaSia (ST3GAL1/2 KO)) is reported as “significantly impaired”. The “Gαi signaling via CCR5 in DeltaSia and sC cells” value (CCR5; HEK293 DeltaSia and sC, CCL5 oligomerization variants experiment) was “very low”, the “Gαi signaling via CCR5 in sC cells compared to WT cells” value (CCR5; HEK293 sC (C1GALT1 KO)) was “almost abolished” and the “Gαi signaling via M1-CCR5 in DeltaSia and sC cells compared to WT cells” value (CCR5; M1-tagged CCR5, HEK293 DeltaSia and sC) was “drastically reduced”. For the same substance, the “Gαi signaling via S6S7AA-CCR5 compared to WT-CCR5” value (S6S7AA-CCR5) was “significantly reduced” and the “Gαi signaling via Y10Y14Y15AAA-CCR5 compared to WT-CCR5” value (Y10Y14Y15AAA-CCR5) was “completely abolished”.
“RKDRGASKTGKKGKGSKGCKRTERSQTPKGP [C21TP^81-111]” was tested, and the “boosting of CCL5 signaling via Y1415AA receptor variant” value (Y14Y15AA-CCR5; 10 µM peptide) was “maintained”, the “boosting of CCL5 signaling via CCR5 in GAG-plus (WT) and GAG-minus cells” value (CCR5; CHO GAG-plus and CHO GAG-minus (CHO-pgsB618) cells, 10 µM peptide) was “boosted” and the “boosting of CCL5-induced Gαi signaling via CCR5” value (CCR5; [1]) was “boosted”. For the same substance, the “boosting of CCL8-induced Gαi signaling via CCR5” value (CCR5; [1]) was “boosted”, the “effect on CCL3-induced Gαi signaling via CCR5” value (CCR5; [1]) was “not affected” and the “boosting of signaling by CCL5, E26A and E66A via CCR5” value (CCR5; HEK293 DeltaSia and sC cells, 10 µM peptide) was “lost”. For the same substance, the “boosting of signaling by CCL5, E26A and E66A via CCR5” value (CCR5; HEK293 WT cells, 10 µM peptide) was “boosting occurs with all three versions of CCL5”, the “boosting of CCL3 signaling via CCR5” value (CCR5; [2]) was “absent” and the “boosting of CCL5 signaling via CCR5” value (CCR5; [2]) was “observed in all three cell lines”. The “boosting of CCL8 signaling via CCR5” value (CCR5; [2]) was “absent”, the “boosting of E66A signaling via CCR5” value (CCR5; HEK293 sC cells, 10 µM peptide) was “significantly boosted” and the “boosting of CCL3-induced signaling via M1-CCR5” value (CCR5; [3]) was “not boosted”. The “boosting of CCL5-induced signaling via M1-CCR5” value (CCR5; [3]) was “boosted”, the “boosting of CCL8-induced signaling via M1-CCR5” value (CCR5; [3]) was “not boosted” and the “boosting of CCL5 signaling via S6S7AA receptor variant” value (S6S7AA-CCR5; 10 µM peptide) was “maintained”. The “boosting of CCL5 signaling via Y10Y14Y15AAA receptor variant” value (Y10Y14Y15AAA-CCR5; 10 µM peptide) was “no longer possible”.
